Experimental data published in ChEMBL document CHEMBL5131402, “Design, synthesis, and biological evaluation of phenyl thiazole-based AR-V7 degraders” (Bioorg Med Chem Lett, 2022).
Values after ≈ are worked out from the molar mass of the structure shown.

Experiments:
CWR22R [1] = assay: Antiproliferative activity against human 22Rv1 cells expressing […]; format: functional, cell-based
[2] = target: von Hippel-Lindau disease tumor suppressor/Androgen receptor (Homo sapiens, UniProt P10275+P40337); assay: PROTAC activity at VHL/AR-V7 (unknown origin) expressed in human 22Rv1 cells assessed as induction of AR-V7 degradation; format: cell-based
[3] = system: von Hippel-Lindau disease tumor suppressor/Androgen receptor (Homo sapiens), P10275+P40337 [UNDEFINED MUTATION]; assay: PROTAC activity at VHL/AR-V7 (unknown origin) expressed in human 22Rv1 cells assessed as induction of AR-V7 degradation my measuring maximum efficacy relative to control; format: cell-based
CWR22R [4] = assay: Antiproliferative activity against human 22Rv1 cells expressing […] assessed as maximum efficacy relative to control; format: functional
[5] = Metabolic stability in mouse liver microsomes assessed as parent compound remaining measured at 1 hr; format: ADME, Microsome; settings: read-out: Stability
[6] = Aqueous solubility of the compound at pH.7.4; format: physicochemical
CWR22R [7] = assay: Antiproliferative activity against human 22Rv1 cells expressing […] assessed as inhibition of cell growth at 10 uM relative to control; format: functional
[8] = Tmax in CD1 mouse at 30 mg/kg, po administered as single dose; format: ADME, organism-based; settings: in vivo
[9] = Terminal half life in CD1 mouse at 30 mg/kg, po administered as single dose; format: ADME, organism-based; settings: in vivo, read-out: beta t1/2 (converted)
[10] = AUC (0 to infinity) in CD1 mouse at 1 mg/kg, iv administered as single dose; format: ADME, organism-based; parameters: time infinity, dose 1 mg/kg, route iv; settings: in vivo
[11] = AUC (0 to infinity) in CD1 mouse at 30 mg/kg, po administered as single dose; format: ADME, organism-based; parameters: time infinity, dose 30 mg/kg, route po; settings: in vivo
[12] = Terminal half life in CD1 mouse at 1 mg/kg, iv administered as single dose; format: ADME, organism-based; settings: in vivo, read-out: beta t1/2 (converted)
[13] = Oral bioavailability in CD1 mouse at 100 mg/kg administered as single dose; format: ADME, organism-based; settings: in vivo
[14] = Cmax in CD1 mouse at 100 mg/kg, po administered as single dose; format: ADME, organism-based; parameters: dose 100 mg/kg, route po; settings: in vivo
[15] = Tmax in CD1 mouse at 100 mg/kg, po administered as single dose; format: ADME, organism-based; settings: in vivo
[16] = Terminal half life in CD1 mouse at 100 mg/kg, po administered as single dose; format: ADME, organism-based; settings: in vivo, read-out: beta t1/2 (converted)
[17] = AUC (0 to infinity) in CD1 mouse at 100 mg/kg, po administered as single dose; format: ADME, organism-based; parameters: time infinity, dose 100 mg/kg, route po; settings: in vivo
[18] = Cmax in CD1 mouse at 30 mg/kg, po administered as single dose; format: ADME, organism-based; parameters: dose 30 mg/kg, route po; settings: in vivo
[19] = Oral bioavailability in CD1 mouse at 30 mg/kg administered as single dose; format: ADME, organism-based; settings: in vivo
[20] = Cmax in CD1 mouse at 1 mg/kg, iv administered as single dose; format: ADME, organism-based; parameters: dose 1 mg/kg, route iv; settings: in vivo

Sequence of von Hippel-Lindau disease tumor suppressor/Androgen receptor (Homo sapiens), P10275+P40337 [UNDEFINED MUTATION] (P10275 whole entry, looked up, stated change not applied): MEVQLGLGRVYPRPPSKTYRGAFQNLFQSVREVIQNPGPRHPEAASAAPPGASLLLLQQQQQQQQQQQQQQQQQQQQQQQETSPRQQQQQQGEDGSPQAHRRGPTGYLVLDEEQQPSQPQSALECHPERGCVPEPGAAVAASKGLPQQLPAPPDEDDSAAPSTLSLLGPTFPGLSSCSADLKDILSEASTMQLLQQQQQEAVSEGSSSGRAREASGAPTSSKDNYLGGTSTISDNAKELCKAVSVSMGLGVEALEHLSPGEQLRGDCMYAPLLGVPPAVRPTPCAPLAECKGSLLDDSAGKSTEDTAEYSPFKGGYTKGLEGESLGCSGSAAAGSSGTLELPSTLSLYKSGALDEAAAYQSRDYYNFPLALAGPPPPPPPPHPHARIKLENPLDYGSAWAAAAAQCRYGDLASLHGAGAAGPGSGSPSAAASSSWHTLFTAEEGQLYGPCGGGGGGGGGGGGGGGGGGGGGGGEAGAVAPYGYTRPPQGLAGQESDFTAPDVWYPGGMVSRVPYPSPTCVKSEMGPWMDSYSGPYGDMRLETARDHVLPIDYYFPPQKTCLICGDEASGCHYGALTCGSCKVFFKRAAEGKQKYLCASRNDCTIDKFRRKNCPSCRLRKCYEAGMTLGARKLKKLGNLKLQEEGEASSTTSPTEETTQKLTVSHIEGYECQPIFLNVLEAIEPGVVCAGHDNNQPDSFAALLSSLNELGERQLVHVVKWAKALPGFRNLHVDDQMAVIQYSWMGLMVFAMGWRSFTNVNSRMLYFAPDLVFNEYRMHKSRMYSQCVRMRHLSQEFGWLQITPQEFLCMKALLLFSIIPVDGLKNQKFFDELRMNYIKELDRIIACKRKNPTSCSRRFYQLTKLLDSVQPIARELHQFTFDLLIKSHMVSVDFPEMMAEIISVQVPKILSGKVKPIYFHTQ
Sequence of von Hippel-Lindau disease tumor suppressor/Androgen receptor (Homo sapiens), P10275+P40337 [UNDEFINED MUTATION] (P40337 whole entry, looked up, stated change not applied): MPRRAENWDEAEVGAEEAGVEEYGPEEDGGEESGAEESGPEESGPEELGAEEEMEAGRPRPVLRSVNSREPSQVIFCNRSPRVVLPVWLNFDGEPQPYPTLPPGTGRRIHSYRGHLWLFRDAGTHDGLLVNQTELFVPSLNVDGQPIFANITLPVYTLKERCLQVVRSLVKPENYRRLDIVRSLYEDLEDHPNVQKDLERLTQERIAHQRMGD
Sequence of von Hippel-Lindau disease tumor suppressor/Androgen receptor (P10275 whole entry, looked up, change not shown): as the sequence (P10275 whole entry, looked up, stated change not applied) above
Sequence of von Hippel-Lindau disease tumor suppressor/Androgen receptor (P40337 whole entry, looked up, change not shown): as the sequence (P40337 whole entry, looked up, stated change not applied) above

COc1c(-c2csc(N3CCOCC3)n2)ccc(OCCCCC(=O)N[C@H](C(=O)N2C[C@H](O)C[C@H]2C(=O)N[C@@H](C)c2ccc(-c3scnc3C)cc2)C(C)(C)C)c1F
EC50 (CWR22R [1]): > 10 µM
DC50 [2]: > 10 µM

Cc1ncsc1-c1ccc([C@H](C)NC(=O)[C@@H]2C[C@@H](O)CN2C(=O)[C@@H](NC(=O)CCCCOc2ccc(-c3csc(N4CCOCC4)n3)c(F)c2)C(C)(C)C)cc1
EC50 (CWR22R [1]): > 10 µM

Cc1cc(OCCCCC(=O)N[C@H](C(=O)N2C[C@H](O)C[C@H]2C(=O)N[C@@H](C)c2ccc(-c3scnc3C)cc2)C(C)(C)C)ccc1-c1csc(N2CCOCC2)n1
EC50 (CWR22R [1]): > 10 µM

Cc1ncsc1-c1ccc([C@H](C)NC(=O)[C@@H]2C[C@@H](O)CN2C(=O)[C@@H](NC(=O)CCCCOc2ccc(-c3csc(N4CCOCC4C)n3)cc2)C(C)(C)C)cc1 (stereo partly specified)
EC50 (CWR22R [1]): > 10 µM
DC50 [2]: > 10 µM

Cc1ncsc1-c1ccc([C@H](C)NC(=O)[C@@H]2C[C@@H](O)CN2C(=O)[C@@H](NC(=O)CCCCOc2ccc(-c3csc(N4CC5CCC(C4)O5)n3)cc2)C(C)(C)C)cc1
EC50 (CWR22R [1]): > 10 µM
DC50 [2]: > 10 µM

Cc1ncsc1-c1ccc(CNC(=O)[C@@H]2C[C@@H](O)CN2C(=O)[C@@H](NC(=O)C2(F)CC2)C(C)(C)C)c(OCCCOc2ccc(-c3csc(N4CCOCC4)n3)cc2)c1
EC50 (CWR22R [1]): > 10 µM

CCC1COCCN1c1nc(-c2ccc(OCCCCC(=O)N[C@H](C(=O)N3C[C@H](O)C[C@H]3C(=O)N[C@@H](C)c3ccc(-c4scnc4C)cc3)C(C)(C)C)cc2)cs1 (stereo partly specified)
EC50 (CWR22R [1]): > 10 µM

Cc1ncsc1-c1ccc([C@H](C)NC(=O)[C@@H]2C[C@@H](O)CN2C(=O)[C@@H](NC(=O)c2ccc(-c3csc(N4CCOCC4)n3)cc2)C(C)(C)C)cc1
DC50 [2]: > 10 µM

Cc1ncsc1-c1ccc([C@H](C)NC(=O)[C@@H]2C[C@@H](O)CN2C(=O)[C@@H](NC(=O)CCCCOc2ccc(-c3csc(N4CC5(CCOCC5)C4)n3)cc2)C(C)(C)C)cc1
EC50 (CWR22R [1]): > 10 µM

Cc1ncsc1-c1ccc([C@H](C)NC(=O)[C@@H]2C[C@@H](O)CN2C(=O)[C@@H](NC(=O)CCCOc2ccc(-c3csc(N4CCOCC4)n3)cc2)C(C)(C)C)cc1
EC50 (CWR22R [1]): 1.36 µM
Emax [3]: 53%
Emax (CWR22R [4]): 90%
remaining at 1 h [5]: 5%
DC50 [2]: 0.35 µM
solubility [6]: < 2 µM

Cc1ncsc1-c1ccc([C@H](C)NC(=O)[C@@H]2C[C@@H](O)CN2C(=O)[C@@H](NC(=O)CCCCOc2ccc(-c3csc(N4CC5(COC5)C4)n3)cc2)C(C)(C)C)cc1
EC50 (CWR22R [1]): > 10 µM

Cc1ncsc1-c1ccc([C@H](C)NC(=O)[C@@H]2C[C@@H](O)CN2C(=O)[C@@H](NC(=O)CCCCOc2ccc(-c3csc(N4CC(C)OC(C)C4)n3)cc2)C(C)(C)C)cc1 (stereo partly specified)
EC50 (CWR22R [1]): > 10 µM

Cc1ncsc1-c1ccc([C@H](C)NC(=O)[C@@H]2C[C@@H](O)CN2C(=O)[C@@H](NC(=O)CCCCOc2ccc(-c3csc(N4CC(C)OCC4C)n3)cc2)C(C)(C)C)cc1 (stereo partly specified)
EC50 (CWR22R [1]): > 10 µM

Cc1ncsc1-c1ccc([C@H](C)NC(=O)[C@@H]2C[C@@H](O)CN2C(=O)[C@@H](NC(=O)CCCCOc2ccc(-c3csc(N4CCOC(C)C4)n3)cc2)C(C)(C)C)cc1 (stereo partly specified)
EC50 (CWR22R [1]): > 10 µM

Cc1ncsc1-c1ccc([C@H](C)NC(=O)[C@@H]2C[C@@H](O)CN2C(=O)[C@@H](NC(=O)CCCCOc2ccc(-c3csc(N4CCC5(COC5)C4)n3)cc2)C(C)(C)C)cc1
EC50 (CWR22R [1]): > 10 µM

Cc1ncsc1-c1ccc([C@H](C)NC(=O)[C@@H]2C[C@@H](O)CN2C(=O)[C@@H](NC(=O)CCCCOc2ccc(-c3csc(N4CCOCC4)n3)cc2N)C(C)(C)C)cc1
EC50 (CWR22R [1]): > 10 µM

Cc1ncsc1-c1ccc(CNC(=O)[C@@H]2C[C@@H](O)CN2C(=O)[C@@H](NC(=O)C2(F)CC2)C(C)(C)C)c(OCCCCCCCCOc2ccc(-c3csc(N4CCOCC4)n3)cc2)c1
EC50 (CWR22R [1]): > 10 µM

Cc1ncsc1-c1ccc([C@H](C)NC(=O)[C@@H]2C[C@@H](O)CN2C(=O)[C@@H](NC(=O)COc2ccc(-c3csc(N4CCOCC4)n3)cc2)C(C)(C)C)cc1
DC50 [2]: > 10 µM

Cc1ncsc1-c1ccc([C@H](C)NC(=O)[C@@H]2C[C@@H](O)CN2C(=O)[C@@H](NC(=O)CCCCOc2ccc(-c3csc(N4CCOC(C)(C)C4)n3)cc2)C(C)(C)C)cc1
inhibition at 10 µM (CWR22R [7]): 66%
DC50 [2]: > 10 µM

Cc1ncsc1-c1ccc([C@H](C)NC(=O)[C@@H]2C[C@@H](O)CN2C(=O)[C@@H](NC(=O)CCCCOc2ccc(-c3csc(N4CCOCC4)n3)cc2F)C(C)(C)C)cc1
EC50 (CWR22R [1]): > 10 µM

c1ccc(-c2csc(N3CCOCC3)n2)cc1
DC50 [2]: > 10 µM

Cc1ncsc1-c1ccc([C@H](C)NC(=O)[C@@H]2C[C@@H](O)CN2C(=O)[C@@H](NC(=O)CCCCCOc2ccc(-c3csc(N4CCOCC4)n3)cc2)C(C)(C)C)cc1
Emax [3]: 60%
DC50 [2]: 1 µM

Cc1ncsc1-c1ccc(CNC(=O)[C@@H]2C[C@@H](O)CN2C(=O)[C@@H](NC(=O)C2(F)CC2)C(C)(C)C)c(OCCCCOc2ccc(-c3csc(N4CCOCC4)n3)cc2)c1
EC50 (CWR22R [1]): > 10 µM

Cc1ncsc1-c1ccc(CNC(=O)[C@@H]2C[C@@H](O)CN2C(=O)[C@@H](NC(=O)C2(F)CC2)C(C)(C)C)c(OCCOc2ccc(-c3csc(N4CCOCC4)n3)cc2)c1
EC50 (CWR22R [1]): > 10 µM

Cc1ncsc1-c1ccc([C@H](C)NC(=O)[C@@H]2C[C@@H](O)CN2C(=O)[C@@H](NC(=O)CCCCOc2ccc(-c3csc(N4CCOCC4)n3)cc2)C(C)(C)C)cc1
EC50 (CWR22R [1]): 0.88 µM
Tmax [8]: 45 min
half-life [9]: 60 min
Emax [3]: 67%
AUC(0-inf) [10]: 1290 ng·h/mL
AUC(0-inf) [11]: 1980 ng·h/mL
half-life [12]: 54 min
bioavailability [13]: 4.6%
Cmax [14]: 1810 ng/mL
Emax (CWR22R [4]): 94%
Tmax [15]: 79.8 min
half-life [16]: 42 min
remaining at 1 h [5]: 6%
AUC(0-inf) [17]: 5950 ng·h/mL
Cmax [18]: 773 ng/mL
bioavailability [19]: 5%
DC50 [2]: 0.32 µM
solubility [6]: 3.5 µM (≈ 2.76 µg/mL)
Cmax [20]: 2900 ng/mL

Cc1ncsc1-c1ccc([C@H](C)NC(=O)[C@@H]2C[C@@H](O)CN2C(=O)[C@@H](NC(=O)CCOc2ccc(-c3csc(N4CCOCC4)n3)cc2)C(C)(C)C)cc1
DC50 [2]: > 10 µM

Cc1ncsc1-c1ccc(CNC(=O)[C@@H]2C[C@@H](O)CN2C(=O)[C@@H](NC(=O)C2(F)CC2)C(C)(C)C)c(OCCCCCCOc2ccc(-c3csc(N4CCOCC4)n3)cc2)c1
EC50 (CWR22R [1]): > 10 µM

Cc1ncsc1-c1ccc([C@H](C)NC(=O)[C@@H]2C[C@@H](O)CN2C(=O)[C@@H](NC(=O)CCCCOc2ccc(-c3csc(N4CCOCC4)n3)cc2[N+](=O)[O-])C(C)(C)C)cc1
EC50 (CWR22R [1]): > 10 µM
